Source: patent US11999732B2, “P2X3 receptor antagonists” (RECORDATI INDUSTRIA CHIMICA E FARMACEUTICA SPA, priority 2018, dated 2024)
Like-named read-outs stand apart in the source and are kept apart here.

Target: T1, human P2X3 receptor (Homo sapiens, UniProt P56373)
T1 construct: expressed in transfected cells; host or cells: CHO-K1
T1 sequence (P56373 1-397): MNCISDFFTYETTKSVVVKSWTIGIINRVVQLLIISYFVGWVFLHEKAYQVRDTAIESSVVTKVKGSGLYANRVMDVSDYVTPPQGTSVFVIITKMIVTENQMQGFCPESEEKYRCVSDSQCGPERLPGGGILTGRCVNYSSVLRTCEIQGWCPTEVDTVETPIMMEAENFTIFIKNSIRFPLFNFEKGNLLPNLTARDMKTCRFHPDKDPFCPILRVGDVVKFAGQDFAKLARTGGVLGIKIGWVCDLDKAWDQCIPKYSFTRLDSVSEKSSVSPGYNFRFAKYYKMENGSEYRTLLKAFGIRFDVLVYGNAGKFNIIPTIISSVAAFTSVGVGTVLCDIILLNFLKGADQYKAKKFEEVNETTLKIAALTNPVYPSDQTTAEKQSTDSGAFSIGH
Experiment: Calcium luminescence (photoprotein) assay in CHO-K1 cells co-expressing human P2X3 receptor, α,β-Met-ATP stimulation, FLEXSTATION readout
Format: cell-based
Settings: human P2X3 receptor antagonist activity, CHO-K1 cells, α,β-Met-ATP, read-out: h-P2X3 IC50
Protocol: The assay for the human purinergic P2X3 receptor has been adapted to the internal screening instrumentation using the FLEXSTATION as reader and a photoprotein as luminescent readout. The assay consists of CHO-K1 cells recombinantly co-expressing the human P2rx3 receptor and a Ca^2+ sensitive photoprotein. Cells are maintained in DMEM F-12 (1:1) mixture (LONZA cat. no BE04-687F/U1) supplemented with 9 mL of 100 mM Sodium Pyruvate (LONZA cat. no BE13-115E), 29 mL of 7.5% Sodium Bicarbonate (LONZA cat. no: BE17-613E), 5.5 mL of 1 M Hepes (LONZA cat. no BE17-737E), 5 mL of 100× Penicillin/Streptomycin (LONZA cat. no DE17-602E) and 50 mL of Fetal Bovine Serum (Sigma cat. no F7524), 1 mg/mL G418 (Sigma cat. no G8168) and 5 µg/ml puromycin (Sigma cat. no P9620). Standard propagation conditions consist of seeding in a P75 flask twice a week, recovering about 20×10^6 cells, corresponding to about 80% confluency. Cells were seeded into black-walled clear bottom 96 well plates at a density of 40000 cells/well in a Tyrode's buffer (Standard Tyrode's buffer: in house solution, 130 mM NaCl, 5 mM KCl, 2 mM CaCl2, 5 mM NaHCO3, 1 mM MgCl2, 20 mM HEPES, pH 7.4). After 24 h the culture medium was replaced with 200 μL/well of coelenterazine in Tyrode's buffer (Coelenterazine: from BIOSYNTH (cat. no C-7001). 10 mM stock solution was prepared in DMSO and glutathione and stored at −20° C.). The plates were incubated for 4 hours at 37° C., and injected with 10 μL/well of test compounds at 25× concentration in Tyrode's buffer. After 4 minutes a second injection of 50 μL/well of 5× α,β-Met-ATP in Tyrode's buffer (α,β-Met-ATP: from Tocris (cat. no 3209), was dissolved at 100 mM in water and stored in aliquots at −20° C.) was performed and the signal of the emitted luminescence was recorded by FLEXSTATION III (Molecular Devices).
The inhibition curves of the tested compounds at cloned P2X3 receptor were determined by nonlinear regression analysis using software Prism 4.0 (Graphpad, San Diego, Calif.). The IC50 values and pseudo-Hill slope coefficients were estimated by the program.

COCCNc1cnc2c(c1)c(Cc1cc(OC)cc(OC)c1)nn1c(CC(C)C)nnc21 [Example 118, 6-(3,5-dimethoxybenzyl)-n-(2-methoxyethyl)-3-(2-methylpropyl)pyrido[2,3-d][1,2,4]triazolo[4,3-b]pyridazin-8-amine]
IC50 (Table 8): 1050 nM

CC(C)Cc1nnc2c3ncc(N4CCOCC4)cc3n(Cc3ccc(Cl)cc3)c(=O)n12 [Example 108, 6-(4-chlorobenzyl)-3-(2-methylpropyl)-8-(morpholin-4-yl)pyrido[2,3-e][1,2,4]triazolo[4,3-c]pyrimidin-5(6H)-one]
IC50 (Table 7): 175 nM

COc1ccc(CN2C(=O)N3CC(C(C)C)N=C3c3ncc(N4CCOCC4)cc32)cc1 (stereo not drawn) [Example 18, 6-(4-methoxybenzyl)-8-(morpholin-4-yl)-2-(propan-2-yl)-2,6-dihydroimidazo[1,2-c]pyrido[2,3-e]pyrimidin-5(3H)-one]
IC50 (Table 6): 301 nM

CCn1nccc1-c1nnc2c3ncc(N4CCOCC4)cc3n(Cc3ccc(Cl)cc3)c(=O)n12 [Example 107, 6-(4-chlorobenzyl)-3-(1-ethyl-1h-pyrazol-5-yl)-8-(morpholin-4-yl)pyrido[2,3-e][1,2,4]triazolo[4,3-c]pyrimidin-5(6H)-one]
IC50 (Table 7): 1320 nM

COc1cc(Cn2c(=O)n3c(C)c(C)nc3c3ncc(NCC4COC4)cc32)cc(OC)c1 [Example 70, 6-(3,5-dimethoxybenzyl)-2,3-dimethyl-8-{[(oxetan-3-yl)methyl]amino}imidazo[1,2-c]pyrido[2,3-e]pyrimidin-5(6H)-one]
IC50 (Table 7): 139 nM

CC(C)Cc1cn2c(=O)n(Cc3c(F)cc(Cl)cc3F)c3cc(N4CCOCC4)cnc3c2n1 [Example 75, 6-(4-chloro-2,6-difluorobenzyl)-2-(2-methylpropyl)-8-(morpholin-4-yl)imidazo[1,2-c]pyrido[2,3-e]pyrimidin-5(6H)-one]
IC50 (Table 7): 3510 nM

CC(C)(C)c1nnc2c3ncc(Br)cc3c(Cc3ccc(Cl)cc3)nn12 [Example 112, 8-bromo-3-tert-butyl-6-(4-chlorobenzyl)pyrido[2,3-d][1,2,4]triazolo[4,3-b]pyridazine]
IC50 (Table 8): 1440 nM

O=c1n(Cc2ccc(Cl)cc2)c2cc(N3CCOCC3)cnc2c2nnc(CC3CCOCC3)n12 [Example 186, 6-(4-chlorobenzyl)-8-(morpholin-4-yl)-3-(tetrahydro-2H-pyran-4-ylmethyl)pyrido[2,3-e][1,2,4]triazolo[4,3-c]pyrimidin-5(6H)-one]
IC50 (Table 9): 289 nM

CCC1CN2C(=O)N(Cc3ccc(OC)cc3)c3cc(N4CC(COC)C4)cnc3C2=N1 (stereo not drawn) [Example 39, 2-ethyl-6-(4-methoxybenzyl)-8-[3-(methoxymethyl)azetidin-1-yl]-2,6-dihydroimidazo[1,2-c]pyrido[2,3-e]pyrimidin-5(3H)-one]
IC50 (Table 6): 5140 nM

COc1cc(CN2C(=O)N3CC(C(C)C)N=C3c3ncc(C(=O)NC4CCOCC4)cc32)cc(OC)c1 (stereo not drawn) [Example 58, 6-(3,5-dimethoxybenzyl)-5-oxo-2-(propan-2-yl)-n-(tetrahydro-2H-pyran-4-yl)-2,3,5,6-tetrahydroimidazo[1,2-c]pyrido[2,3-e]pyrimidine-8-carboxamide]
IC50 (Table 6): 9200 nM

COc1cc(CN2C(=O)N3CC(C(C)C)N=C3c3ncc(N4CCOCC4)cc32)cc(OC)c1 (stereo not drawn) [Example 4, 6-(3,5-dimethoxybenzyl)-8-(morpholin-4-yl)-2-(propan-2-yl)-2,6-dihydroimidazo[1,2-c]pyrido[2,3-e]pyrimidin-5(3H)-one]
IC50 (Table 6): 178 nM

O=C1N(Cc2ccc(Cl)cc2)c2cc(N3CCOCC3)cnc2C2=NCC(C3CCCCC3)N12 (stereo not drawn) [Example 26, 6-(4-chlorobenzyl)-3-cyclohexyl-8-(morpholin-4-yl)-2,6-dihydroimidazo[1,2-c]pyrido[2,3-e]pyrimidin-5(3H)-one]
IC50 (Table 6): 469 nM

COc1cc(CN2C(=O)N3CC(C)(C)CN=C3c3ncc(NCCO)cc32)cc(OC)c1 [Example 144, 5-(3,5-dimethoxybenzyl)-3-[(2-hydroxyethyl)amino]-9,9-dimethyl-5,8,9,10-tetrahydro-6H-pyrido[2,3-e]pyrimido[1,2-c]pyrimidin-6-one]
IC50 (Table 9): 2480 nM

CC(C)CC1CN=C2c3ncc(N4CCOCC4)cc3N(Cc3ccc(Cl)cc3)C(=O)N21 (stereo not drawn) [Example 31, 6-(4-chlorobenzyl)-3-(2-methylpropyl)-8-(morpholin-4-yl)-2,6-dihydroimidazo[1,2-c]pyrido[2,3-e]pyrimidin-5(3H)-one]
IC50 (Table 6): 229 nM

CC(C)C1CN2C(=O)N(Cc3ccc(Cl)cc3)c3cc(N4CC5(COC5)C4)cnc3C2=N1 (stereo not drawn) [Example 15, 6-(4-chlorobenzyl)-8-(2-oxa-6-azaspiro[3.3]heptan-6-yl)-2-(propan-2-y1)-2,6-dihydroimidazo[1,2-c]pyrido[2,3-e]pyrimidin-5(3H)-one]
IC50 (Table 6): 1430 nM

CC(C)C1CN2C(=O)N(Cc3ccc(Cl)cc3)c3cc(N4CCC(O)CC4)cnc3C2=N1 (stereo not drawn) [Example 51, 6-(4-chlorobenzyl)-8-(4-hydroxypiperidin-1-yl)-2-(propan-2-yl)-2,6-dihydroimidazo[1,2-c]pyrido[2,3-e]pyrimidin-5(3H)-one]
IC50 (Table 6): 731 nM

COc1cc(Cn2c(=O)n3c(C)nnc3c3ncc(N4CCOCC4)cc32)cc(OC)c1 [Example 101, 6-(3,5-dimethoxybenzyl)-3-methyl-8-(morpholin-4-yl)pyrido[2,3-e][1,2,4]triazolo[4,3-c]pyrimidin-5(6H)-one]
IC50 (Table 7): 2440 nM

Clc1ccc(Cc2nn3c(CC4CCOCC4)nnc3c3ncc(N4CCOCC4)cc23)cc1 [Example 126, 6-(4-chlorobenzyl)-8-(morpholin-4-yl)-3-(tetrahydro-2H-pyran-4-ylmethyl)pyrido[2,3-d][1,2,4]triazolo[4,3-b]pyridazine]
IC50 (Table 8): 20.6 nM

COc1ccc(CN2C(=O)N3CC(CC(F)(F)F)N=C3c3ncc(N4CCOCC4)cc32)cc1 (stereo not drawn) [Example 56, 6-(4-methoxybenzyl)-8-(morpholin-4-y1)-2-(2,2,2-trifluoroethyl)-2,6-dihydroimidazo[1,2-c]pyrido[2,3-e]pyrimidin-5(3H)-one]
IC50 (Table 6): 345 nM

CC(C)(C)c1nnc2c3ncc(N4CCC(O)CC4)cc3c(Cc3ccc(Cl)cc3)nn12 [Example 140, 1-[5-tert-butyl-8-(4-chlorobenzyl)-3,4,6,7,13-pentazatricyclo[7.4.0.02,6]trideca-1(9),2,4,7,10,12-hexaen-11-yl]piperidin-4-ol]
IC50 (Table 8): 309 nM

COc1ccc(CN2C(=O)N3CC(COC(C)(C)C)N=C3c3ncc(N4CCOCC4)cc32)cc1 (stereo not drawn) [Example 57, 2-(tert-butoxymethyl)-6-(4-methoxybenzyl)-8-(morpholin-4-yl)-2,6-dihydroimidazo[1,2-c]pyrido[2,3-e]pyrimidin-5(3H)-one]
IC50 (Table 6): 3280 nM

COc1cc(Cn2c(=O)n3c(C)c(C(C)C)nc3c3ncc(N4CCC(OC)CC4)cc32)cc(OC)c1 [Example 87, 6-(3,5-dimethoxybenzyl)-8-(4-methoxypiperidin-1-yl)-3-methyl-2-(propan-2-yl)imidazo[1,2-c]pyrido[2,3-e]pyrimidin-5(6H)-one]
IC50 (Table 7): 444 nM

CC(C)c1nnc2c3ncc(N4CCOCC4)cc3c(Cc3ccc(Cl)cc3)nn12 [Example 127, 6-(4-chlorobenzyl)-8-(morpholin-4-yl)-3-(propan-2-yl)pyrido[2,3-d][1,2,4]triazolo[4,3-b]pyridazine]
IC50 (Table 8): 147 nM

COc1ccc(CN2C(=O)N3CC(C(C)C)N=C3c3ncc(N4CC5(COC5)C4)cc32)cc1 (stereo not drawn) [Example 19, 6-(4-methoxybenzyl)-8-(2-oxa-6-azaspiro[3.3]heptan-6-yl)-2-(propan-2-yl)-2,6-dihydroimidazo[1,2-c]pyrido[2,3-e]pyrimidin-5(3H)-one]
IC50 (Table 6): 5510 nM
